Results reported in US20180289763A1, “COMPOSITION CONTAINING HERBAL MEDICINE EXTRACTS OF PINELLIA AND SCUTELLARIA FOR REDUCING SIDE EFFECTS DUE TO ANTICANCER DRUGS” (COMPREHENSIVE AND INTEGRATIVE MEDICINE INSTITUTE, priority 2013, published 2018).
Marks after values point to notes of the source that are not given here.

Tests used:
[1] = Body weight and body weight gain in cisplatin-treated rats; assay type: in vivo, rat
Method: Body weights and body weight gains in each group that were measured after the first and fourth administrations of cisplatin and the necropsy are shown in Table 3.

[2] = system: cisplatin-induced gastrointestinal motility disorder; assay: Charcoal transit ratio in small intestine (gastrointestinal motility); assay type: in vivo, rat; settings: for Distance charcoal meal transferred / GI charcoal transit ratio: during 30 min
Source text: Also, permeation of a substance through the digestive tract represents the motility in the entire gastrointestinal tract, measurement of a charcoal transit ratio in the small intestine is known to be very useful to diagnose whether or not there is a problem in digestive motility (Wintola et al., 2010), and a decrease in the charcoal transit ratio in the small intestine indicates a decrease in digestive motility such as the fecal retention, that is, constipation (Sagar et al., 2005; Meite et al., 2010).
A total length of a small intestine and a distance that a charcoal meal was transferred in the small intestine were measured, and the charcoal transit ratio was calculated, and then the results are shown in Table 4.

[3] = system: cisplatin-induced gastrointestinal motility disorder; assay: Fecal parameters (pellet number, wet and dry weight, water content); assay type: in vivo, rat; settings: for Fecal Dry-weight / Fecal Water content / Fecal Wet-weight / Fecal pellet number: feces of 24 hours
[4] = system: fundus antioxidant defense system; assay: Fundus antioxidant defense system (MDA, GSH, CAT, SOD); assay type: in vivo, rat
Source text: Changes in MDA content, GSH content, SOD activity, and CAT activity in the fundus in each group that were observed are shown in Table 6.

tryptophan hydroxylase = assay: Pylorus tryptophan hydroxylase activity; assay type: in vivo, rat
Source text: Meanwhile, in the ondansetron administered group, a change in tryptophan hydroxylase activity similar to that in the cisplatin control was shown (FIG. 3(A)).

monoamine oxidase = assay: Pylorus monoamine oxidase activity; assay type: in vivo, rat
Method: Compared to the normal vehicle control, in the cisplatin control, a significant (p<0.01) decrease in activity of a serotonin lyase, monoamine oxidase, in pyloric tissues was shown, but in the Pinelliae Rhizoma and Scutellariae Radix extract 200, 100 and 5 mg/kg administered groups, compared to the cisplatin control, significant (p<0.01) increases in monoamine oxidase activity in pyloric tissues were dose-dependently shown. Meanwhile, in the ondansetron administered group, a change in monoamine oxidase activity similar to that in the cisplatin control was shown (FIG. 3(B)).

gastrin = assay: Gastrin content in pyloric tissues; assay type: in vivo, rat
Source text: Meanwhile, in the ondansetron administered group, a change in pylorus gastrin content similar to that in the cisplatin control was shown (FIG. 4(A)).

serotonin = assay: Serotonin content in pyloric tissues; assay type: in vivo, rat
Source text: Meanwhile, in the ondansetron administered group, a change in pylorus serotonin content similar to that in the cisplatin control was shown (FIG. 4(B)).

[5] = system: gastrin immunoreactive cells; assay: Gastrin immunoreactive cells in pyloric mucosa; assay type: in vivo, rat
Source text: As a result of observing histopathological changes, the numbers of gastrin and serotonin immunoreactive cells in the pyloric mucosa and the number of serotonin immunoreactive cells in the colonic mucosa that were detected are shown in Table 9.
Meanwhile, in the ondansetron administered group, a change in the number of gastrin immunoreactive cells in the pyloric mucosa similar to that in the cisplatin control was shown (Table 9, and FIG. 8).

[6] = system: serotonin immunoreactive cells; assay: Serotonin immunoreactive cells in pyloric and colonic mucosa; assay type: in vivo, rat
Method: (§1) In the examples, to provide an integrated medical method to reduce side effects caused by a chemotherapeutic agent with respect to a patient with a neoplastic disease, an effect of co-administration of a Pinelliae Rhizoma and Scutellariae Radix extract with respect to a digestive motility disorder caused by the chemotherapeutic agent was examined. In the following examples, rats with a gastrointestinal motility disorder caused by cisplatin were used. 2 mg/kg of cisplatin was administered once a week for 5 weeks, each of 200, 100 and 50 mg/kg of the Pinelliae Rhizoma and Scutellariae Radix extracts were administered at 14 days from the fourth administration of cisplatin, influences on gastrointestinal motility, damage to a digestive tract mucosa and physiology of digestive tract endocrine cells were observed as well as an antioxidative effect, experimental results were compared to an ondansetron 1 mg/kg administered group, wherein the ondansetron was known as a representative 5-HT3 receptor blocking agent to have an effective effect on a cisplatin-induced gastrointestinal motility disorder.
(§2) In this example, as laboratory animals, Sprague-Dawley, Slc: SD rats (6-week-old males, SLC, Shizuoka, Japan) were used. 60 healthy SPF rats were purchased, acclimated for 14 days, and 8 laboratory animals having uniform body weights (intact control: 249.13±12.12 g, 232˜264 g; cisplatin treated group: 225.35±10.58 g, 206˜243 g) when fasting after three weeks of cisplatin administration per each group were selected to be used in the experiment. […] All of the laboratory animals underwent fasting for about 18 hours at each of the first treatment of cisplatin, the first drug administration and the final necropsy (even in this period, drinking water was freely provided), individuals were identified using picric acid.
(§3) To cause a gastrointestinal motility disorder, 2 mg/kg of cisplatin (Sigma-Aldrich, St. Louise, Mo., USA) was dissolved in a saline solution, and the resulting solution was intraperitoneally administered at a dose of 1 ml/kg once a week for 5 weeks, thereby causing a chronic gastrointestinal motility disorder, and in the normal vehicle control, the same dose of a saline solution, instead of cisplatin, was intraperitoneally administered by the same method.
(§4) A Pinelliae Rhizoma and Scutellariae Radix herbal medicine was dissolved in sterile distilled water at a dose of 5 ml/kg (a body weight of the animal) three weeks after the first cisplatin administration, and forcibly and orally administered with a 5 ml syringe equipped with a metal zonde 30 minutes after the fourth cisplatin administration once a day for 14 days. The ondansetron was dissolved in a saline solution, subcutaneously administered with the same frequency as the Pinelliae Rhizoma and Scutellariae Radix herbal medicine at a dose of 1 ml/kg, and in the normal vehicle and cisplatin controls, instead of the Pinelliae Rhizoma and Scutellariae Radix extract or ondansetron, only the same dose of sterile distilled water was orally administered.
(§5) An effect on the gastrointestinal motility was evaluated by evaluating a charcoal transit ratio in the small intestine, effects on constipation were evaluated by observing a body weight, the change in fecal parameters (the fecal pellet number, the fecal weight, and the water content in the feces), the histopathological changes in the colon containing fecal pellets—changes in fecal pellet surface mucosa thickness, mucous producing cell number per mm2 of the mucosa and average mucosa thickness.

[7] = system: cisplatin-induced gastrointestinal tract damage (fundic and pyloric mucosa); assay: Histopathology of fundus and pylorus (mucosa thickness, degenerative mucosa percentage)
Method: as §1, §2, §3, §4, §5

[8] = system: cisplatin-induced colonic mucosa atrophy; assay type: in vivo, rat; settings: 1 mg/kg s.c., 14 days
Source text: In the cisplatin control, considerable decreases in the mucous producing cell number per unit area (mm^2) and fecal pellet surface mucous thickness were caused along with the atrophy of the total colonic mucosa containing fecal pellets, and thus, compared to the normal vehicle control, significant (p<0.01) decreases in fecal pellet-containing colonic mucosa thickness, the mucous producing cell number in the mucosa and fecal pellet surface mucous thickness were shown.

[9] = cisplatin 2 mg/kg i.p. once a week for 5 weeks
[10] = cisplatin control (2 mg/kg i.p. weekly) compared to the normal vehicle control
[11] = cisplatin control (2 mg/kg i.p. weekly) compared to the normal vehicle control, 33 to 34 days after first cisplatin
[12] = 1 mg/kg s.c., 14 days, cisplatin-treated rats
[13] = 1 mg/kg s.c., 14 days, compared to the cisplatin control
[14] = cisplatin-treated rats, at sacrifice
[15] = compared to the cisplatin control

N.N.[Cl][Pt][Cl] [Cisplatin, cis-diaminedichloroplatinum II]
Body weight Sacrifice [C] [1, 9]: 195.13 ± 12.96^a g
Body weight gain Test article dosing periods [C − B] [1, 9]: −29.88 ± 3.04^d g
Body weight gain Total experiment periods [C − A] [1, 9]: −4.00 ± 7.01^d g
Body weight At 4th cisplatin treatment [B] ([1]; cisplatin 2 mg/kg i.p. once a week, three weeks after first administration): 225.00 ± 13.90^a g
change of body weight gain during the total 5-week experiment [1, 10]: −107.34%
change of body weight gain for 2 weeks after the drug administration [1, 10]: −896.67%
Distance charcoal meal transferred [2, 9]: 45.00 ± 11.08^a cm
GI charcoal transit ratio [2, 9]: 35.61 ± 8.66^a %
change of charcoal transit ratio in the small intestine [2, 10]: −53.09%
change of distance that the charcoal meal was transferred in the small intestine [2, 10]: −53.06%
Fecal Dry-weight [3, 9]: 5.14 ± 1.51 g
Fecal Water content [3, 9]: 32.86 ± 6.45^d %
Fecal Wet-weight [3, 9]: 7.66 ± 2.14^a g
Fecal pellet number ([3]; cisplatin 2 mg/kg i.p. once a week for 5 weeks, 33 to 34 days after first cisplatin): 15.75 ± 5.50^a
change of average dry weight of feces for 24 hours [3, 11]: −7.30%
change of average water content in feces excreted for 24 hours [3, 11]: −54.47%
change of average wet weight of the feces excreted for 24 hours [3, 11]: −62.34%
change of total number of fecal pellets excreted for 24 hours [3, 11]: −61.23%
Fundus Catalase [4, 9]: 44.06 ± 8.98^a nM/mim/mg tissue
Fundus Glutathione [4, 9]: 1.22 ± 0.40^d μM/mg tissue
Fundus Malondialdehyde [4, 9]: 16.24 ± 2.27^a nM/g tissue
Fundus Superoxide dismutase [4, 9]: 71.96 ± 15.54^a nM/mim/mg tissue
change of CAT activity in fundus tissues at the final sacrifice [4, 10]: −55.83%
change of GSH content in the fundus tissue at the final sacrifice [4, 10]: −72.46%
change of MDA content in fundus tissues at the final sacrifice [4, 10]: 327.30%
change of SOD activity in the fundus tissue at the final sacrifice [4, 10]: −56.87%
change of tryptophan hydroxylase activity in pyloric tissues at the final sacrifice (tryptophan hydroxylase; [10]): 184.55%
change of monoamine oxidase activity in pyloric tissues at the final sacrifice (monoamine oxidase; [10]): −68.47%
change of gastrin content in pyloric tissues at the final sacrifice (gastrin; [10]): −59.22%
change of serotonin content in pyloric tissues at the final sacrifice (serotonin; [10]): 279.57%
Number of Gastrin-IR cells in the pyloric mucosa [5, 9]: 11.75 ± 3.77^d cells/mm^2 of mucosa
change of number of gastrin immunoreactive cells per unit area of the pyloric mucosa [5, 10]: −86.42%
Number of Serotonin-IR cells in the colonic mucosa [6, 9]: 73.75 ± 11.79^a cells/mm^2 of mucosa
Number of Serotonin-IR cells in the pyloric mucosa [6, 9]: 65.38 ± 11.02^a cells/mm^2 of mucosa
change of number of serotonin immunoreactive cells per unit area of the colonic mucosa [6, 10]: 514.58%
change of number of serotonin immunoreactive cells per unit area of the pyloric mucosa [6, 10]: 530.12%
Fundus Degenerative mucosa percentage [7, 9]: 54.89 ± 10.97^d %/mucosa
Fundus Total mucosa thickness [7, 9]: 436.02 ± 87.18^a μm
Pylorus Degenerative mucosa percentage [7, 9]: 68.26 ± 10.44^a %/mucosa
Pylorus Total mucosa thickness [7, 9]: 146.12 ± 26.03^a μm
change of average fundic mucosa thickness [7, 10]: −47.53%
change of pylorus average mucosa thickness [7, 10]: −61.72%

Cc1nccn1CC1CCc2c(c3ccccc3n2C)C1=O (centres unmarked) [Ondansetron, ondansetron]
Body weight Sacrifice [C] [1, 12]: 212.38 ± 4.66^ab g
Body weight gain Test article dosing periods [C − B] [1, 12]: −14.50 ± 5.68^de g
Body weight gain Total experiment periods [C − A] [1, 12]: 14.50 ± 11.64^de g
change of body weight gain during the total 5-week experiment [1, 13]: 463.50%
change of body weight gain for 2 weeks after the drug administration [1, 13]: 52.46%
Distance charcoal meal transferred [2, 12]: 65.13 ± 10.68^ac cm
GI charcoal transit ratio [2, 12]: 50.80 ± 8.85^ac %
change of charcoal transit ratio in the small intestine [2, 13]: 42.66%
change of distance that the charcoal meal was transferred in the small intestine [2, 13]: 44.72%
Fecal Dry-weight [3, 12]: 5.27 ± 1.10 g
Fecal Water content [3, 12]: 55.32 ± 13.07^ef %
Fecal Wet-weight [3, 12]: 12.55 ± 3.71^ab g
Fecal pellet number [3, 12]: 25.38 ± 6.95^ac
change of average dry weight of feces for 24 hours [3, 13]: 2.48%
change of average water content in feces excreted for 24 hours [3, 13]: 68.34%
change of average wet weight of the feces excreted for 24 hours [3, 13]: 63.91%
change of total number of fecal pellets excreted for 24 hours [3, 13]: 61.11%
Fundus Catalase [4, 12]: 63.48 ± 12.39^ac nM/mim/mg tissue
Fundus Glutathione [4, 12]: 1.81 ± 0.17^de μM/mg tissue
Fundus Malondialdehyde [4, 12]: 9.67 ± 1.93^ac nM/g tissue
Fundus Superoxide dismutase [4, 12]: 103.00 ± 22.32^ac nM/mim/mg tissue
change of CAT activity in fundus tissues at the final sacrifice [4, 13]: 44.10%
change of GSH content in the fundus tissue at the final sacrifice [4, 13]: 48.11%
change of MDA content in fundus tissues at the final sacrifice [4, 13]: −40.45%
change of SOD activity in the fundus tissue at the final sacrifice [4, 13]: 43.13%
change of tryptophan hydroxylase activity in pyloric tissues at the final sacrifice (tryptophan hydroxylase; [13]): −4.35%
change of monoamine oxidase activity in pyloric tissues at the final sacrifice (monoamine oxidase; [13]): 5.05%
change of gastrin content in pyloric tissues at the final sacrifice (gastrin; [13]): −3.05%
change of serotonin content in pyloric tissues at the final sacrifice (serotonin; [13]): −4.04%
Colonic mucosa thickness [8, 14]: 192.08 ± 27.34^ac μm
Fecal pellet surface mucous thickness [8, 14]: 28.00 ± 6.98^df μm
Mucous producing cell number [8, 14]: 306.63 ± 78.94^ac cells/mm^2
change of fecal pellet surface mucous thickness in the colon [8, 15]: 239.94%
change of fecal pellet-containing colon average mucosa thickness [8, 15]: 72.06%
change of mucous producing cell number in the colonic mucosa [8, 15]: 126.92%
Number of Gastrin-IR cells in the pyloric mucosa [5, 12]: 11.63 ± 3.70^d cells/mm^2 of mucosa
change of number of gastrin immunoreactive cells per unit area of the pyloric mucosa [5, 13]: −1.06%
Number of Serotonin-IR cells in the colonic mucosa [6, 12]: 73.00 ± 17.65^a cells/mm^2 of mucosa
Number of Serotonin-IR cells in the pyloric mucosa [6, 12]: 64.00 ± 10.45^a cells/mm^2 of mucosa
change of number of serotonin immunoreactive cells per unit area of the colonic mucosa [6, 13]: −1.02%
change of number of serotonin immunoreactive cells per unit area of the pyloric mucosa [6, 13]: −2.10%
Fundus Degenerative mucosa percentage [7, 12]: 35.42 ± 4.69^de %/mucosa
Fundus Total mucosa thickness [7, 12]: 592.37 ± 51.61^ac μm
Pylorus Degenerative mucosa percentage [7, 12]: 41.08 ± 10.77^ac %/mucosa
Pylorus Total mucosa thickness [7, 12]: 240.01 ± 36.08^ac μm
change of average fundic mucosa thickness [7, 13]: 35.86%
change of pylorus average mucosa thickness [7, 13]: 64.25%
